According to patent EP4741383A1, “COMPOUND AND USE THEREOF AS ANTI-CANCER DRUG” (Tyligand Bioscience (Shanghai) Limited, priority 2023, dated 2025):

What was measured:
CYP2C19 = biological target: T1, CYP2C19 (Homo sapiens, UniProt P33261); assay: CYP450 inhibition in human liver microsomes, CYP2C19; assay type: in vitro ADME; settings: pH 7.4, read-out: % CYP inhibition @ 10 µM 2C19
T1 construct: tissue Corning or Xenotech; host or cells: human liver microsomes
Source text: (§1) According to standard methods in the field for the study of cytochrome P450 enzyme systems, such as the method described in Kerns, Edward H. and Di Li et al., Drug-like Properties: Concepts, Structure Design and Methods: from ADME to Toxicity Optimization (2008), San Diego, Academic Press, and Lin, Tong et al., In Vitro Assessment of Cytochrome P450 Inhibition: Strategies for Increasing LC/MS-Based Assay Throughput Using a One-Point IC50 Method and Multiplexing High-Performance Liquid Chromatography (J. Pharm. Sci. 2007, 96 (9), 2485). The inhibitory effect of the disclosed compounds on the cytochrome P450 enzyme system was similarly examined below.
(§2) Human liver microsomes were purchased from Corning or Xenotech. The test compounds were evaluated by detecting the metabolism of substrates for different Cyp450 isoforms by human liver microsomes.
(§3) 0.1 M potassium phosphate buffer (K-buffer, pH 7.4) was pre-warmed.
(§4) 100 mM K-buffer was prepared by mixing 9.5 mL of stock solution A (1 M potassium dihydrogen phosphate, prepared by dissolving 136.5 g of potassium dihydrogen phosphate in 1 L of Milli-Q water) with 40.5 mL of stock solution B (1 M potassium hydrogen phosphate, prepared by dissolving 174.2 g of potassium hydrogen phosphate in 1 L of Milli-Q water). The total volume was adjusted to 500 mL with Milli-Q water, and the buffer was titrated to pH 7.4 using KOH or H3PO4.
(§5) Test compound solution and specific inhibitor solution (400× dilution) were prepared in a 96-well plate. For the test compound, 8 µL of 10 mM test compound was transferred into 12 µL of ACN. For specific inhibitors of CYP1A2, CYP2C9, and CYP2D6: 12 µL of 1 mM α-naphthoflavone, 10 µL of 40 mM sulfaphenazole, 10 µL of 10 mM quinidine, and 8 µL of DMSO were mixed. For specific inhibitors of CYP3A4, CYP2B6, CYP2C8, and CYP2C19: 8 µL of DMSO stock solution was added to 12 µL of ACN.
(§6) A 4× diluted NADPH solution was prepared by dissolving 66.7 mg of NADPH in 10 mL of 0.1 M K-buffer (pH 7.4). […]

CYP2C9 = biological target: T2, CYP2C9 (Homo sapiens, UniProt P11712); assay: CYP450 inhibition in human liver microsomes, CYP2C9; assay type: in vitro ADME; settings: pH 7.4, read-out: % CYP inhibition @ 10 µM 2C9
T2 construct: tissue Corning or Xenotech; host or cells: human liver microsomes
T2 sequence (P11712 whole entry): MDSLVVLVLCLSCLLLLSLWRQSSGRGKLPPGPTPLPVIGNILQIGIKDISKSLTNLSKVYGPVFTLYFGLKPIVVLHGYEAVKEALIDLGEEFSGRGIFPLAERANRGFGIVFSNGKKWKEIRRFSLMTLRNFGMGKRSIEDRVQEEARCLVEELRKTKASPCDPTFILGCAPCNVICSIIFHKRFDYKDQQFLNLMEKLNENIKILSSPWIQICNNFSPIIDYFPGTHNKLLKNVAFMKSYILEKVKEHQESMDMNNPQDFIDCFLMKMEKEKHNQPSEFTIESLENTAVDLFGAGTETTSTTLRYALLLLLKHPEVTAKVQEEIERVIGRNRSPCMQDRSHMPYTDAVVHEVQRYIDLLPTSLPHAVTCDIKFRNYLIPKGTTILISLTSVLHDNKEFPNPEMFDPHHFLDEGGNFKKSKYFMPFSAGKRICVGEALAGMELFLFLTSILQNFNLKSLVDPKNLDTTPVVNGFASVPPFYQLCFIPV
Source text: as §1, §2, §3, §4, §5, §6

T1 sequence (P33261 whole entry): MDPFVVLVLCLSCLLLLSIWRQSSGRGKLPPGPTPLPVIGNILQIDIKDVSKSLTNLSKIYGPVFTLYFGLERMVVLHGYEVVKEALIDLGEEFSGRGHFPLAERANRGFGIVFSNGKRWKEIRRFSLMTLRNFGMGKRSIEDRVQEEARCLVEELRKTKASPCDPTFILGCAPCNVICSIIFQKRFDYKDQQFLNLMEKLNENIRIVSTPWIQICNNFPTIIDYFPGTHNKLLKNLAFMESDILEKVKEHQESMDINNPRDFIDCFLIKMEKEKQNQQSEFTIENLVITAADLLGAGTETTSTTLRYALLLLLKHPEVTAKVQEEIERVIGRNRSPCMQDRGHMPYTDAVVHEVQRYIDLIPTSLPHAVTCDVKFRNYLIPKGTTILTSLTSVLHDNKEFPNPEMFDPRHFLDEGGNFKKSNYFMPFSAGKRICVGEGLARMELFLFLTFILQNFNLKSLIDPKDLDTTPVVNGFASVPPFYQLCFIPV

Compound `O=C(Nc1ccc(-c2cc3cc(F)c(-c4nnn[nH]4)cc3n2C2CCC2)cc1)C(=O)Nc1ccc(N2CCC3(CCOC3)CC2)cc1` [Example 67] has an inhibition at 45 min, 10 µM (CYP2C19) of 13.9% and an inhibition at 10 min, 10 µM (CYP2C9) of 7.84%.
`O=C(Nc1ccc(-c2cc3cc(F)c(-c4nnn[nH]4)cc3n2C2CCC2)cc1)C(=O)Nc1ccc(N2CCC(CO)CC2)cc1` [Example 23] showed an inhibition at 45 min, 10 µM (CYP2C19) of 1.78% and an inhibition at 10 min, 10 µM (CYP2C9) of -3.32%.
Work on `CC1(n2c(-c3ccc(NC(=O)C(=O)Nc4ccc(N5CCC6(CCOC6)CC5)cc4)cc3)cc3cc(F)c(-c4nnn[nH]4)cc32)CCC1` [Example 68] yielded an inhibition at 45 min, 10 µM (CYP2C19) of 13.5% and an inhibition at 10 min, 10 µM (CYP2C9) of 6.51%.
